The assay concerns FLAP (5-lipoxygenase activating protein). Put plainly: In vitro binding test: displacement of [3H]-7-chloro-3-(5-((3-fluoropyridin-2-yl)methoxy)-2-methylphenyl)-3,4-dihydroquinazolin-2(1H)-one from Sf9 microsome fractions. Also on record: species or system human and mouse. The conditions noted are these: Sf9 microsome fractions expressing FLAP; 100% = radioligand binding with 10 μM sodium 3-(3-(tert-butylsulfanyl)-1-(4-chlorobenzyl)-5-isopropyl-1H-indol-2-yl)-2,2-dimethylpropanoate, 0% = DMSO; test compound concentration not given. An outline of the steps:
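Sf9 microsomes expressing human or mouse FLAP (2 μg/mL) preincubated with compound 10 min at room temperature, then 120 nM tritiated quinazolinone ligand added for 60 min; buffer 100 mM Tris-HCl pH 7.5 with NaCl, EDTA, DTT, glycerol, Tween20. Bound ligand filtered and counted by scintillation; 10 μM indole propanoate defines 100% inhibition, DMSO 0%.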
(In general: Displacement assays read how much labelled ligand stays bound in the presence of the test substance.)

Each structure is given as a SMILES string.

As for `CCc1ccc(OCc2c(F)cccc2F)cc1N1Cc2ccc(CO)cc2NC1=O` [Example 179, 3-(5-((2,6-difluorobenzyl)oxy)-2-ethylphenyl)-7-(hydroxymethyl)-3,4-dihydroquinazolin-2(1H)-one], the “inhibitory rate (%)” value is 91%. Take `COC(=O)/C=C/c1cc2c(c(C3CC3)n1)CN(c1cc3c(cc1C)CCC(c1ncccc1F)O3)C(=O)N2` (stereo not shown) [Example 89, methyl (2E)-3-(5-cyclopropyl-3-(2-(3-fluoropyridin-2-yl)-6-methyl-3,4-dihydro-2H-chromen-7-yl)-2-oxo-1,2,3,4-tetrahydropyrido[4,3-d]pyrimidin-7-yl)acrylate]: the “inhibitory rate (%)” value was found to be 98%.

On to `Cc1ccc(OCc2ncccc2F)cc1N1Cc2c(Br)cncc2NC1=O` [Example 315, 5-bromo-3-(5-((3-fluoropyridin-2-yl)methoxy)-2-methylphenyl)-3,4-dihydropyrido[3,4-d]pyrimidin-2(1H)-one], for which the “inhibitory rate (%)” value was 103%. To `Cc1ccc(OCc2c(F)cccc2F)cc1N1Cc2ccc(-c3noc(=O)[nH]3)cc2NC1=O` [Example 208, 3-(5-((2,6-difluorobenzyl)oxy)-2-methylphenyl)-7-(5-oxo-4,5-dihydro-1,2,4-oxadiazol-3-yl)-3,4-dihydroquinazolin-2(1H)-one] belongs 96%; to `Cn1cc(-c2ncc(C3CC3)c3c2NC(=O)N(c2cc4c(cc2Cl)CCC(c2ncccc2F)O4)C3)cn1` (stereo not shown) [Example 163, 3-(6-chloro-2-(3-fluoropyridin-2-yl)-3,4-dihydro-2H-chromen-7-yl)-5-cyclopropyl-8-(1-methyl-1H-pyrazol-4-yl)-3,4-dihydropyrido[3,4-d]pyrimidin-2(1H)-one], 98%; to `Cc1ccc(OCc2ncccc2F)cc1N1Cc2c(ccnc2C(N)=O)NC1=O` [Example 322, 3-(5-((3-fluoropyridin-2-yl)methoxy)-2-methylphenyl)-2-oxo-1,2,3,4-tetrahydropyrido[4,3-d]pyrimidine-5-carboxamide], 97%. To `Cc1ccc(OCc2ncccc2F)cc1-n1c(=O)[nH]c2cccnc2c1=O` [Example 338, 3-(5-((3-fluoropyridin-2-yl)methoxy)-2-methylphenyl)pyrido[3,2-d]pyrimidine-2,4(1H,3H)-dione] belongs 90%. With `Cc1ccc(OCc2ncccc2F)cc1N1Cc2c(Br)cccc2NC1=O` [Example 282, 5-bromo-3-(5-((3-fluoropyridin-2-yl)methoxy)-2-methylphenyl)-3,4-dihydroquinazolin-2(1H)-one] the figure was 98%. For `O=C1Nc2cncc(Cl)c2CN1c1cc2c(cc1Cl)CCC(c1ncccc1F)O2` (stereo not shown) [Example 152, 5-chloro-3-(6-chloro-2-(3-fluoropyridin-2-yl)-3,4-dihydro-2H-chromen-7-yl)-3,4-dihydropyrido[3,4-d]pyrimidin-2(1H)-one], the “inhibitory rate (%)” value is 103%.

`Cc1ccc(OCc2ncccc2Cl)cc1N1Cc2ccccc2NC1=O` [Example 187, 3-(5-((3-chloropyridin-2-yl)methoxy)-2-methylphenyl)-3,4-dihydroquinazolin-2(1H)-one]: the “inhibitory rate (%)” value came out at 103%. To `Cc1ccc(OCc2c(F)cccc2F)cc1N1Cc2c(CO)cccc2NC1=O` [Example 195, 3-(5-((2,6-difluorobenzyl)oxy)-2-methylphenyl)-5-(hydroxymethyl)-3,4-dihydroquinazolin-2(1H)-one] belongs 97%; to `Cc1ccc(OCc2ncccc2F)cc1N1Cc2c(Cl)cccc2N(C)C1=O` [Example 291, 5-chloro-3-(5-((3-fluoropyridin-2-yl)methoxy)-2-methylphenyl)-1-methyl-3,4-dihydroquinazolin-2(1H)-one], 94%. With `Cc1ccc(OCc2ccccc2Cl)cc1N1Cc2ccccc2NC1=O` [Example 173, 3-(5-((2-chlorobenzyl)oxy)-2-methylphenyl)-3,4-dihydroquinazolin-2(1H)-one] the figure was 70%. To `Cc1cc2c(cc1N1Cc3c(cc(-n4cncn4)nc3C3CC3)NC1=O)OC(c1ncccc1F)CC2` (stereo not shown) [Example 140, 5-cyclopropyl-3-(2-(3-fluoropyridin-2-yl)-6-methyl-3,4-dihydro-2H-chromen-7-yl)-7-(1H-1,2,4-triazol-1-yl)-3,4-dihydropyrido[4,3-d]pyrimidin-2(1H)-one] belongs 99%; to `COC(=O)c1ccc2c(c1)NC(=O)N(c1cc(OCc3cc(F)ccc3F)ccc1C)C2` [Example 199, methyl 3-(5-((2,5-difluorobenzyl)oxy)-2-methylphenyl)-2-oxo-1,2,3,4-tetrahydroquinazoline-7-carboxylate], 60%. As to `O=C1Nc2cc(CO)ccc2CN1c1cc(OCc2c(F)cccc2F)ccc1CCc1ccccc1` [Example 257, 3-(5-((2,6-difluorobenzyl)oxy)-2-(2-phenylethyl)phenyl)-7-(hydroxymethyl)-3,4-dihydroquinazolin-2(1H)-one], the “inhibitory rate (%)” value is on record as 97%. To `Cn1cc(-c2cc3c(c(C4CC4)n2)CN(c2cc4c(cc2Cl)CCC(c2ncccc2F)O4)C(=O)N3)cn1` (stereo not shown) [Example 100, 3-(6-chloro-2-(3-fluoropyridin-2-yl)-3,4-dihydro-2H-chromen-7-yl)-5-cyclopropyl-7-(1-methyl-1H-pyrazol-4-yl)-3,4-dihydropyrido[4,3-d]pyrimidin-2(1H)-one] belongs 100%; to `O=C(NCCO)c1cc2c(c(C3CC3)n1)CN(c1cc3c(cc1Cl)CCC(c1ncccc1F)O3)C(=O)N2` (stereo not shown) [Example 101, 3-(6-chloro-2-(3-fluoropyridin-2-yl)-3,4-dihydro-2H-chromen-7-yl)-5-cyclopropyl-N-(2-hydroxyethyl)-2-oxo-1,2,3,4-tetrahydropyrido[4,3-d]pyrimidine-7-carboxamide], 96%. With `O=C1Nc2cc(N3CCCS3(=O)=O)nc(C3CC3)c2CN1c1cc2c(cc1Cl)CCC(c1ncccc1F)O2` (stereo not shown) [Example 106, 3-(6-chloro-2-(3-fluoropyridin-2-yl)-3,4-dihydro-2H-chromen-7-yl)-5-cyclopropyl-7-(1,1-dioxido-1,2-thiazolidin-2-yl)-3,4-dihydropyrido[4,3-d]pyrimidin-2(1H)-one] the figure was 94%; with `O=C(c1cc2c(c(C3CC3)n1)CN(c1cc3c(cc1Cl)CCC(c1ncccc1F)O3)C(=O)N2)N1CCOCC1` (stereo not shown) [Example 74, 3-(6-chloro-2-(3-fluoropyridin-2-yl)-3,4-dihydro-2H-chromen-7-yl)-5-cyclopropyl-7-(morpholin-4-ylcarbonyl)-3,4-dihydropyrido[4,3-d]pyrimidin-2(1H)-one], 104%; with `Cc1ccc(OCc2ncccc2F)cc1-n1c(=O)[nH]c2cccc(F)c2c1=O` [Example 359, 5-fluoro-3-(5-((3-fluoropyridin-2-yl)methoxy)-2-methylphenyl)quinazoline-2,4(1H,3H)-dione], 97%. With `O=C(CCc1ccc(OCc2ncccc2F)cc1N1Cc2ccccc2NC1=O)NC1CC1` [Example 280, N-cyclopropyl-3-(4-((3-fluoropyridin-2-yl)methoxy)-2-(2-oxo-1,4-dihydroquinazolin-3(2H)-yl)phenyl)propanamide] the figure was 62%.

Values taken from patent US20150299188A1, “HETEROCYCLIC COMPOUND” (priority 2012, published 2015).
